# Assay results as given in patent publication US8580268B2, “CpG oligonucleotide analogs containing hydrophobic T analogs with enhanced immunostimulatory activity” (Coley Pharmaceutical GmbH, priority 2006, dated 2013).
# “Also recorded” adds a separate entry of the source. Strand notation (5' to 3'): a small letter for the sugar, then the base; units joined by * are phosphorothioate-linked, units joined directly phosphodiester-linked; [ ] holds rarer units or linkages, { } end groups; capitals alone tell only the bases. [5IU] = 5-iodo-2'-deoxyuridine (JU); [5EtU] = 5-ethyl-2'-deoxyuridine (EU); d = 2'-deoxy (DNA)
# Key:
# SaI/N tumor cells = test: Mouse SA1N tumor model; assay type: in vivo; settings: A/J mice
# Procedure: SA1N tumor model: Female A/J mice (10 per group) were injected SC with 5×10^5 SaI/N tumor cells on day 0. Mice were treated with 100 μg ODN or PBS alone given SC once weekly starting on day 8 post tumor induction. Animals were monitored for survival and tumor volume. Tumor size (the length and the width) was measured using a digital vernier caliper. Tumor volume was calculated by using the formula: Tumor volume=(0.4) (ab2), where a=large diameter and b=smaller diameter.
# Next the modified P-class ODN were evaluated for their ability to reduce tumor volume mouse SA1N tumor model. Female A/J mice (10 per group) were injected SC with 5×10^5 SaI/N tumor cells on day 0. Mice were treated with 35 μg (FIG. 31a) or 100 μg (FIG. 31b) P-class ODN with a lipophilic substituted nucleotide analog (SEQ ID NO:60, 64, and 67), an unmodified C-class ODN, an unmodified B-class ODN (SEQ ID NO:55), or PBS alone. ODN were given SC once weekly starting on day 8 post tumor induction. Animals were monitored for survival and tumor volume.
# human TLR9 = target: T1, human TLR9 (Homo sapiens, UniProt Q9NR96); test: TLR9 luciferase assay (NF-κB reporter) in hTLR9-LUC-293 cells; assay type: cell-based; settings: 16 h, stated in words relative to the comparator ODN
# T1 construct: expressed in transfected cells
# T1 sequence (Q9NR96 26-1032): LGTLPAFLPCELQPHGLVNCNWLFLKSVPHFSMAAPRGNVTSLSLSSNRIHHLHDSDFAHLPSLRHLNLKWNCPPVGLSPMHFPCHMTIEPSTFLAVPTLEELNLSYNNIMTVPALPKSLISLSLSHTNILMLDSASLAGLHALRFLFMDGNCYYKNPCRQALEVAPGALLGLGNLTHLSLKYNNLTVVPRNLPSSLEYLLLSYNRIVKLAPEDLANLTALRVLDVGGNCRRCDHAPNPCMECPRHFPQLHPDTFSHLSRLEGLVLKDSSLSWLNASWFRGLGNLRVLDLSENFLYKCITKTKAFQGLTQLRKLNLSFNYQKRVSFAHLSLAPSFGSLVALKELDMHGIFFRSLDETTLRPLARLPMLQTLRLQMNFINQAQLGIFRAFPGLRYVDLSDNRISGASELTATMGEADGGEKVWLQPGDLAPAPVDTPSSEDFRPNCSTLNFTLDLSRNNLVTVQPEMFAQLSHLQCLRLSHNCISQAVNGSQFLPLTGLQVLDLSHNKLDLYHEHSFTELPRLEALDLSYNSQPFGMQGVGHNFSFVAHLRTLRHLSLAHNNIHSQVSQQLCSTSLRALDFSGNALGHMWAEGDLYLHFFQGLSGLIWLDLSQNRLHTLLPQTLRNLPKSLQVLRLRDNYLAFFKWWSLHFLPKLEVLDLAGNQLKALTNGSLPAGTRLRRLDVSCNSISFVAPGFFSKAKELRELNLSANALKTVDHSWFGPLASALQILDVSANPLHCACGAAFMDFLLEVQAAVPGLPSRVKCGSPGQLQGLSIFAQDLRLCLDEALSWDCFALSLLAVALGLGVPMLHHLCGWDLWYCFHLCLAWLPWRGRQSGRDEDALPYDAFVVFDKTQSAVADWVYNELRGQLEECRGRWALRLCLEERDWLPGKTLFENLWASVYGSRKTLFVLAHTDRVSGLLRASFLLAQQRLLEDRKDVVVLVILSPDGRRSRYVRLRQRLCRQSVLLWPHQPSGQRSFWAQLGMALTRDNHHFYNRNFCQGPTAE
# Procedure: HEK293 cells were transfected by electroporation with vectors expressing the respective human TLR and a 6xNF-κB-luciferase reporter plasmid. Stable transfectants (3×10^4 cells/well) were incubated indicated amounts of ODN for 16 h at 37° C. in a humidified incubator. Each data point was done in triplicate. Cells were lysed and assayed for luciferase gene activity (using the BriteLite kit from Perkin-Elmer, Zaventem, Belgium). Stimulation indices were calculated in reference to reporter gene activity of medium without addition of ODN.
# BALB/c mice = test: In vivo murine IFN-alpha induction after SC injection (ELISA); set-up: species or system mouse; settings: bled at 3 hr post injection
# Procedure: Female BALB/c mice (6-8 weeks of age) were purchased from Charles River Canada (Quebec, Canada) and housed in micro-isolators in the Animal Care Facility at Coley Pharmaceutical Group Canada. All studies were conducted in accordance with the Animal Care Committee of Coley Canada under the guidance of the Canadian Council on Animal Care. All animals were naïve to CpG ODNs.
# In order to determine the effect of the modified P-class ODN in vivo, BALB/c mice (5 per group) were injected SC with differing doses of ODN. Animals were bled at 3 hr post injection and plasma tested for IFN-alpha by ELISA. The activity of modified P-class ODN (SEQ ID NO:58, 60-62, 64, and 67) was compared to that of a B-class negative control (SEQ ID NO:55) and a negative control (SEQ ID NO:26).
# human PBMC [1] = test: IL-6 induction in human PBMC (luminex); assay type: cell-based; settings: human PBMC from three donors, 24 h
# Procedure: (§1) Peripheral blood buffy coat preparations from healthy human donors were obtained from the Blood Bank of the University of Düsseldorf (Germany) and PBMC were purified by centrifugation over Ficoll-Hypaque (Sigma). Cells were cultured in a humidified incubator at 37° C. in RPMI 1640 medium supplemented with 5% (v/v) heat inactivated human AB serum (BioWhittaker) or 10% (v/v) heat inactivated FCS, 2 mM L-glutamine, 100 U/ml penicillin and 100 μg/ml streptomycin (all from Sigma).
# (§2) PBMC were resuspended at a concentration of 5×10^6 cells/ml and added to 96 well round-bottomed plates […]. PBMC were incubated with ODN and culture supernatants (SN) were collected after the indicated time points. If not used immediately, SN were stored at −20° C. until required.
# (§3) Amounts of cytokines in the SN were assessed using an in-house ELISA for IFN-α developed using commercially available antibody (PBL, New Brunswick, N.J., USA) or on the Luminex multiplex system (Luminex Corporation, 12212 Technology Boulevard, Austin, Tex. 78727-6115).
# Next the modified P-class ODN were tested for the ability to induce IL-6 in human PBMC. PBMC from three donors were incubated with ODN at concentrations as indicated for 24 h, followed by luminex 25-plex analysis of the supernatants for IL-6. The activity of modified P-class ODN (SEQ ID NO:58, 60-62, FIG. 28a) (SEQ ID NO:64 and 67, FIG. 28b) was compared to that of an unmodified B-class ODN (SEQ ID NO:55), and unmodified C-class ODN (SEQ ID NO:54), a negative control ODN (SEQ ID NO:53), and an unmodified P-class ODN (SEQ ID NO:56).
# human PBMC [2] = test: IFN-alpha production in human PBMC (ELISA); assay type: cell-based
# Procedure: as §1, §2, §3
# [3] = 35 μg ODN SC once weekly from day 8
# [4] = 100 μg ODN SC once weekly from day 8
Substance,reduction in tumor volume (SaI/N tumor cells; [3]),reduction in tumor volume (SaI/N tumor cells; [4]),"TLR9 stimulation (NF-κB luciferase activity, relative stimulation index) (human TLR9)",plasma IFN-alpha induction (BALB/c mice),IL-6 induction (human PBMC [1]),"IFN-alpha induction (human PBMC [2]; human PBMC incubated 48 hours, ELISA, P-class ODN)","IFN-alpha production (human PBMC [2]; human PBMC, 24 h, supernatants by ELISA, B-class ODN)"
"EU*C-G*A*C*G*T*C*G*A*T*C*G*G*C*G*C*G*C*G*C*C*G (DNA d[5EtU]*dCdG*dA*dC*dG*dT*dC*dG*dA*dT*dC*dG*dG*dC*dG*dC*dG*dC*dG*dC*dC*dG) [SEQ ID NO:64, EU-modified P-class]",greatest reduction in tumor volume,effective in reducing tumor volume,higher degree of TLR9 stimulation than the unmodified P class ODN,,,,
"JU*C*G*A*C*G*T*C*G*A*T*C*G*G*C*G*C*G*C*G*C*C*G*T (DNA d[5IU]*dC*dG*dA*dC*dG*dT*dC*dG*dA*dT*dC*dG*dG*dC*dG*dC*dG*dC*dG*dC*dC*dG*dT) [SEQ ID NO:61, JU-modified P-class]",,,,slightly higher IFN-alpha induction,slightly higher activation of IL-6,,
"JU*C*G*T*C*G*A*C*G*A*T*C*G*G*C*G*G*C*C*G*C*C*G*T (DNA d[5IU]*dC*dG*dT*dC*dG*dA*dC*dG*dA*dT*dC*dG*dG*dC*dG*dG*dC*dC*dG*dC*dC*dG*dT) [SEQ ID NO:67, JU-modified fully phosphorothioate P-class]",greatest reduction in tumor volume,effective in reducing tumor volume,higher degree of TLR9 stimulation than the unmodified P class ODN,,slightly higher activation of IL-6,,
"JU*C-G*A*C*G*T*C*G*A*T*C*G*G*C*G*C*G*C*G*C*C*G (DNA d[5IU]*dCdG*dA*dC*dG*dT*dC*dG*dA*dT*dC*dG*dG*dC*dG*dC*dG*dC*dG*dC*dC*dG) [SEQ ID NO:58, JU-modified P-class]",,,,slightly higher IFN-alpha induction,slightly higher activation of IL-6,,
"JU*C-G*A*C*G*T*C*G*A*T*C*G*G*C*G*C*G*C*G*C*C*G*T (DNA d[5IU]*dCdG*dA*dC*dG*dT*dC*dG*dA*dT*dC*dG*dG*dC*dG*dC*dG*dC*dG*dC*dC*dG*dT) [SEQ ID NO:60, JU-modified P-class]",greatest reduction in tumor volume,effective in reducing tumor volume,,slightly higher IFN-alpha induction,slightly higher activation of IL-6,,
"JU*C-G*T*C*G*A*C*G*A*T*C*G*G*C*G*G*C*C*G*C*C*G*T (DNA d[5IU]*dCdG*dT*dC*dG*dA*dC*dG*dA*dT*dC*dG*dG*dC*dG*dG*dC*dC*dG*dC*dC*dG*dT) [SEQ ID NO:66, JU-modified P-class with phosphodiester bond in the CG dinucleotide]",,,higher degree of TLR9 stimulation than the unmodified P class ODN; also recorded: reduced activity compared to the fully phosphorothioate SEQ ID NO:67,,,reduced activity compared to SEQ ID NO:67,
"T*G*T*C-G*T*T*T*T*T*T*T*T*T*T*T*T*T*T*T (DNA dT*dG*dT*dCdG*dT*dT*dT*dT*dT*dT*dT*dT*dT*dT*dT*dT*dT*dT*dT) [SEQ ID NO:1, reference compound]",,,,,,,virtually inactive
